Data: ChEMBL document CHEMBL1201862, “PubChem BioAssay data set” (2004)
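These data come from cells grown in 96-well plates and exposed to compound for 48 hours at five concentrations. The concentration for 50% growth inhibition is given as GI50.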 Calls of active or inactive are those of the source. No stated cut-off is given here; in the data, active = GI50 up to about 1.1 µM and inactive = higher.

Tests used:
Assay in all cases: inhibition of tumour cell growth, NCI panel, 48 h
HCC 2998 = tested on: HCC 2998
HCT-15 = tested on: HCT-15
SF-295 = tested on: SF-295
A498 = tested on: A498
MDA-N = tested on: MDA-N
MDA-MB-435 = tested on: MDA-MB-435
NCI/ADR-RES = tested on: NCI/ADR-RES
SW-620 = tested on: SW-620
OVCAR-4 = tested on: OVCAR-4
786-0 = tested on: 786-0
SF-268 = tested on: SF-268
SK-MEL-28 = tested on: SK-MEL-28
HT-29 = tested on: HT-29
UO-31 = tested on: UO-31
A549 = tested on: A549
COLO 205 = tested on: COLO 205
MDA-MB-231 = tested on: MDA-MB-231
T47D = tested on: T47D
LOX IMVI = tested on: LOX IMVI
CAKI-1 = tested on: CAKI-1
NCI-H522 = tested on: NCI-H522
SR = tested on: SR
SNB-75 = tested on: SNB-75
OVCAR-3 = tested on: OVCAR-3
SF-539 = tested on: SF-539
SNB-19 = tested on: SNB-19
PC-3 = tested on: PC-3
OVCAR-8 = tested on: OVCAR-8
CCRF-CEM = tested on: CCRF-CEM
SK-OV-3 = tested on: SK-OV-3
EKVX = tested on: EKVX
TK-10 = tested on: TK-10
OVCAR-5 = tested on: OVCAR-5
NCI-H23 = tested on: NCI-H23
SK-MEL-2 = tested on: SK-MEL-2
UACC-257 = tested on: UACC-257
NCI-H460 = tested on: NCI-H460
ACHN = tested on: ACHN
DU-145 = tested on: DU-145
UACC-62 = tested on: UACC-62
M14 = tested on: M14
SN12C = tested on: SN12C
RXF 393 = tested on: RXF 393
HCT-116 = tested on: HCT-116
SK-MEL-5 = tested on: SK-MEL-5
MCF7 = tested on: MCF7
HOP-62 = tested on: HOP-62
IGROV-1 = tested on: IGROV-1
K562 = tested on: K562
RPMI-8226 = tested on: RPMI-8226
NCI-H226 = tested on: NCI-H226
KM12 = tested on: KM12
HL-60 = tested on: HL-60
BT-549 = tested on: BT-549
Hs-578T = tested on: Hs-578T
U-251 = tested on: U-251
MOLT-4 = tested on: MOLT-4
Malme-3M = tested on: Malme-3M
HOP-92 = tested on: HOP-92

Structure (SMILES): O=C1Nc2ccccc2/C1=N/Nc1c(F)c(F)c(F)c(F)c1F
- GI50 (HCC 2998): > 100 µM (inactive)
- GI50 (HCT-15): 29.9 µM
- GI50 (SF-295): > 100 µM (inactive)
- GI50 (A498): 66.8 µM (inactive)
- GI50 (MDA-N): 32.2 µM (inactive)
- GI50 (MDA-MB-435): > 100 µM (inactive)
- GI50 (NCI/ADR-RES): 70.1 µM (inactive)
- GI50 (SW-620): 43.9 µM (inactive)
- GI50 (OVCAR-4): 82 µM (inactive)
- GI50 (786-0): 22 µM (inactive)
- GI50 (SF-268): 49.5 µM (inactive)
- GI50 (SK-MEL-28): > 100 µM (inactive)
- GI50 (HT-29): 42.8 µM (inactive)
- GI50 (UO-31): 17.1 µM (inactive)
- GI50 (A549): > 100 µM (inactive)
- GI50 (COLO 205): 13.9 µM (inactive)
- GI50 (MDA-MB-231): > 100 µM (inactive)
- GI50 (T47D): 22 µM (inactive)
- GI50 (LOX IMVI): 31.2 µM (inactive)
- GI50 (CAKI-1): 30.8 µM (inactive)
- GI50 (NCI-H522): 14.4 µM (inactive)
- GI50 (SR): 3.48 µM (inactive)
- GI50 (SNB-75): 91.4 µM (inactive)
- GI50 (OVCAR-3): > 100 µM (inactive)
- GI50 (SF-539): 48.4 µM (inactive)
- GI50 (SNB-19): > 100 µM (inactive)
- GI50 (PC-3): > 100 µM (inactive)
- GI50 (OVCAR-8): 41.9 µM (inactive)
- GI50 (CCRF-CEM): 4 µM (inactive)
- GI50 (SK-OV-3): > 100 µM (inactive)
- GI50 (EKVX): 35 µM (inactive)
- GI50 (TK-10): 22 µM (inactive)
- GI50 (OVCAR-5): > 100 µM (inactive)
- GI50 (NCI-H23): 87.7 µM (inactive)
- GI50 (SK-MEL-2): > 100 µM (inactive)
- GI50 (UACC-257): 27.2 µM (inactive)
- GI50 (NCI-H460): 93.3 µM (inactive)
- GI50 (ACHN): 18 µM (inactive)
- GI50 (DU-145): 67 µM (inactive)
- GI50 (UACC-62): > 100 µM (inactive)
- GI50 (M14): > 100 µM (inactive)
- GI50 (SN12C): 36.5 µM (inactive)
- GI50 (RXF 393): 53.8 µM (inactive)
- GI50 (HCT-116): 47.8 µM (inactive)
- GI50 (SK-MEL-5): 58.5 µM (inactive)
- GI50 (MCF7): 36.6 µM (inactive)
- GI50 (HOP-62): > 100 µM (inactive)
- GI50 (IGROV-1): 20.5 µM (inactive)
- GI50 (K562): 8.63 µM (inactive)
- GI50 (RPMI-8226): 3.83 µM (inactive)
- GI50 (NCI-H226): 53 µM (inactive)
- GI50 (KM12): 16.1 µM (inactive)
- GI50 (HL-60): 2.77 µM (inactive)
- GI50 (BT-549): > 100 µM (inactive)
- GI50 (Hs-578T): 86.7 µM (inactive)
- GI50 (U-251): > 100 µM (inactive)
- GI50 (MOLT-4): 12 µM (inactive)

Structure (SMILES): CCCCC/C=C1/CC(CO)(COC(=O)CC(C(C)C)C(C)C)OC1=O (configuration not stated)
- GI50 (HCC 2998): 16.7 µM (inactive)
- GI50 (HCT-15): 18.7 µM
- GI50 (SF-295): 5.73 µM (inactive)
- GI50 (A498): 13 µM (inactive)
- GI50 (MDA-N): 3.67 µM (inactive)
- GI50 (MDA-MB-435): 6.27 µM (inactive)
- GI50 (NCI/ADR-RES): 17.9 µM (inactive)
- GI50 (SW-620): 18.3 µM (inactive)
- GI50 (OVCAR-4): 26.5 µM (inactive)
- GI50 (786-0): 8.53 µM (inactive)
- GI50 (SF-268): 16.4 µM (inactive)
- GI50 (SK-MEL-28): 13 µM (inactive)
- GI50 (HT-29): 19.5 µM (inactive)
- GI50 (UO-31): 11.9 µM (inactive)
- GI50 (A549): 11.1 µM (inactive)
- GI50 (COLO 205): 3.24 µM (inactive)
- GI50 (MDA-MB-231): 15.6 µM (inactive)
- GI50 (T47D): 17.5 µM (inactive)
- GI50 (CAKI-1): 10.7 µM (inactive)
- GI50 (NCI-H522): 16.4 µM (inactive)
- GI50 (SR): 16.6 µM (inactive)
- GI50 (SNB-75): 10.3 µM (inactive)
- GI50 (OVCAR-3): 17.7 µM (inactive)
- GI50 (SNB-19): 7.62 µM (inactive)
- GI50 (PC-3): 10.1 µM (inactive)
- GI50 (OVCAR-8): 17.2 µM (inactive)
- GI50 (CCRF-CEM): 16 µM (inactive)
- GI50 (Malme-3M): 3.27 µM (inactive)
- GI50 (SK-OV-3): 18.9 µM (inactive)
- GI50 (EKVX): 14.2 µM (inactive)
- GI50 (TK-10): 11.8 µM (inactive)
- GI50 (OVCAR-5): 15.4 µM (inactive)
- GI50 (NCI-H23): 16 µM (inactive)
- GI50 (SK-MEL-2): 13.3 µM (inactive)
- GI50 (UACC-257): 21.4 µM (inactive)
- GI50 (NCI-H460): 13.2 µM (inactive)
- GI50 (ACHN): 11.4 µM (inactive)
- GI50 (DU-145): 13.4 µM (inactive)
- GI50 (UACC-62): 13.7 µM (inactive)
- GI50 (M14): 14.1 µM (inactive)
- GI50 (SN12C): 12.4 µM (inactive)
- GI50 (RXF 393): 16.3 µM (inactive)
- GI50 (HCT-116): 14.8 µM (inactive)
- GI50 (HOP-92): 7.35 µM (inactive)
- GI50 (SK-MEL-5): 9.95 µM (inactive)
- GI50 (MCF7): 17.1 µM (inactive)
- GI50 (HOP-62): 7.74 µM (inactive)
- GI50 (IGROV-1): 17.8 µM (inactive)
- GI50 (K562): 5.75 µM (inactive)
- GI50 (NCI-H226): 12.1 µM (inactive)
- GI50 (KM12): 16.9 µM (inactive)
- GI50 (BT-549): 14.8 µM (inactive)
- GI50 (Hs-578T): 2.28 µM (inactive)
- GI50 (U-251): 14.1 µM (inactive)
- GI50 (MOLT-4): 5.42 µM (inactive)
